In patent publication US9333212B2, “Proteasome inhibitors as ovoprotective agents to shield the ovary from chemotherapy toxicity” (Wisconsin Alumni Research Foundation, priority 2013, dated 2016):
“Also recorded” adds a separate entry of the source. Residues, ends and D or L forms follow the SMILES beside them. *: point of attachment. Cbz = O=C(OCc1ccccc1)*

How the values were obtained:
[1] = system: mouse ovarian follicles; assay: TUNEL assay, follicular apoptotic index in mouse ovary; assay type: in vivo
Description: FIG. 5. […] Ovaries were harvested from treated mice 12 hrs post-DXR injection, fixed, and processed for the TUNEL assay. Apoptotic index measures the fraction of cells dying via apoptosis in each group. *p<0.05 one-way ANOVA n=4 mice.
To determine whether Bort pretreatment prevents DXR-induced follicular apoptosis, ovaries were harvested from mice treated with control, DXR, or Bort+DXR, 12 hrs after chemotherapy administration. Ovaries were fixed and stained using the TUNEL assay. Follicles were scored as apoptotic if they contained ≧4 TUNEL-positive granulosa cells.
TUNEL Staining. Apoptosis was detected utilizing ApopTag Plus Fluorescein In Situ Apoptosis Detection Kit as previously described. Nuclei were counterstained with 0.5 ug/mL Propidium Iodide. Apoptotic index was determined only counting follicles containing a visible oocyte; follicle types were differentiated by standard morphology and size ranges. Primary, secondary, and antral follicles were considered positive if they had ≧4 TUNEL-positive granulosa cells.
To ascertain whether Bort pretreatment prevents DXR-induced follicular apoptosis, ovaries were harvested from mice treated with control vehicle, Bort, DXR, or Bort+DXR, 12 hrs after chemo administration.

[2] = DXR accumulation in mouse ovary by autofluorescence (spectral confocal imaging); assay type: in vivo; conditions: Bort pretreatment before DXR
Description: FIG. 11. […] A. Micrographs of mouse ovarian sections obtained by spectral confocal imaging (ex. 488 nm, em. given in panel B). Images are overlays of all collected emission wavelengths. Bar=40 μm. For print, images were adjusted equally to a threshold of 140 in Photoshop with no other image enhancements. B. Graph plots mean fluorescence intensity+/−SEM quantified from raw DXR fluorescence in ovarian sections representing the top, middle, and bottom third of the ovary. Emission profiles at 550-560 nm (cold finger) were not collected by the microscope to prevent direct detection of the excitation laser at that wavelength. Confocal parameters were identical from one sample to the next. DXR points are statistically significant from ctl and Bort-DXR with p<0.05, one-way ANOVA, Bonferroni means comparison.
Fluorescence Microscopy. Images were collected using a Nikon A1 laser scanning microscope with a motorized stage to image the entire section at 400× magnification. Each spectral image was taken at the Z plane providing maximal signal in the section utilizing identical laser settings with the spectral scan head, exciting at 488 nm and collecting emissions from 520 nm through 720 nm at 10 nm intervals. […] Total DXR fluorescence was measured in each section image using Nikon Elements, quantifying fluorescent intensity at each emission wavelength.

[3] = system: KK-15 granulosa cells; assay: Neutral comet assay in KK-15 cells pretreated with proteasome inhibitor before DXR; assay type: cell-based; conditions: 1 h pretreatment, then 3 hr 50 nM DXR
Procedure: FIG. 6. […] (A) Pretreating KK-15 cells for 1 h with the indicated Bortezomib doses prevented dsDNA breaks caused by 3 hr, 50 nM DXR treatment, as measured by the NCA. […] Bar graphs summarize comet moment data. Bortezomib (n=3, ***p<0.001), MG-132, (n=4, ***p<0.001) ANOVA with Bonferroni means comparison.
(§1) KK-15 cells were pretreated with either Bort or MG-132, boronate and aldehyde inhibitors, respectively, for 1 hr prior to DXR.

[4] = system: female CD-1 mice; assay: Breeding trial: pup birth weight and litter size of treated female mice; assay type: in vivo, mouse
Procedure: Both drugs were administered via i.p. injection. Female mice were then mated with proven fertile males starting at 8 weeks of age. Females were mated continuously with males, separated only for pup delivery, then re-mated immediately with rotated males. Pregnancy and litters were followed until females reached 8 months of age or became infertile.

[5] = system: L1210 cells; conditions: cited from earlier work
[6] = system: kidney; conditions: by preserving Mcl-1 levels; cited from earlier work
[7] = system: γH2AX phosphorylation, PTEN, phospho-AKT1, Caspase 3 in mouse ovary; assay: Western blots of ovarian lysates for cell response markers
Procedure: Lysate Preparation and Western Blots. Ovaries were homogenized, protein quantified, and WBs were conducted previously described [9]. Blots were probed with rabbit anti-γH2AFX antibody (Abcam, 1:500), and mouse anti-β actin (Sigma, 1:10,000), rabbit anti-phospho AKT1 (Cell Signaling 1:1000), rabbit anti-PTEN (Cell Signaling 1:1000), and rabbit anti-Caspase 3 (Cell Signaling 1:1000. WBs were scanned and analyzed using the 5 LiCor Odyssey System (UW-Small Molecule Screening Facility) [9].
Mice. […] Four-week old female CD1 mice were treated with 0.143 mg/kg Bort or vehicle control, followed by 20 mg/kg DXR (twice the human equivalent dose) or saline via intraperitoneal injection (200 μL total volume/injection) 1 hour later. Three mice were injected per time point, 2, 4, 6, 12, and 24 hours, as indicated. Mice were euthanized with CO2 per approved protocol, and ovaries were processed as previously described [13].
To determine whether Bort prevents the cellular response to DXR insult, Western blots (WBs) of ovarian lysates were probed for cell response markers at 6 and 24 hrs post-injection.

[8] = system: mouse ovarian cells (granulosa, stromal/thecal cells, oocytes); assay: Neutral comet assay of dsDNA breaks in ovarian cells isolated from treated mice
Procedure: The neutral comet assay was used to measure acute DXR-induced double-strand DNA breaks in an in vivo mouse model as previously described [32]. 4-week-old adolescent female CD1 mice were pre-treated with intraperitoneal (i.p.) injection of 0.143 mg/kg Bort 1 hr prior to 20 mg/kg DXR.
Four-week old female CD1 mice were treated with 0.143 mg/kg Bort or vehicle control, followed by 20 mg/kg DXR (twice the human equivalent dose) or saline via intraperitoneal injection (200 μL total volume/injection) 1 hour later. Three mice were injected per time point, 2, 4, 6, 12, and 24 hours, as indicated.
Neutral Comet Assay. Ovaries were processed to provide enriched populations of granulosa cells/oocytes, and stromal/thecal cells that were utilized in the neutral comet assay [9, 13]. At least 100 granulosa and stromal cells and 50 oocytes were imaged from blinded slides per time point per mouse (3 mice/replicate) [9, 13]. The comet moment to quantify DNA damage was scored using CometScore software. Data were normalized to control for each experiment to allow pooling across experiments.
Four week-old adolescent mice were pretreated with 0.143 mg/kg Bort or vehicle control via i.p. injection 1 hour prior to 20 mg/kg DXR i.p. injection. The Bort dose corresponded to ⅓ the lowest human equivalent dose utilized in chemo regimens (0.43 mg/m2 vs. 1.3 mg/m2), while the DXR dose was double the standard human equivalent dose to allow direct imaging of DXR fluorescence in subsequent experiments.

[9] = system: KK-15 cells; assay: DXR LD50 in KK-15 cells; assay type: cell-based
Description: as §1

[10] = system: mouse ovarian cells (granulosa, stromal/thecal cells, oocytes); conditions: previous characterization, cited from earlier work
[11] = system: mouse ovarian follicles; conditions: previous characterization, cited from earlier work
[12] = in vivo; cited from earlier work
[13] = 1 month post-DXR; cited from earlier work
[14] = system: cardiac-derived H9C2 cells; conditions: cited from earlier work
[15] = system: rodent ovary; conditions: in vivo; cited from earlier work
[16] = Bort pretreatment vs DXR alone, 12 hrs post-DXR
[17] = Bort pretreatment, 24 hrs post-injection

CC(C)C[C@H](NC(=O)[C@H](Cc1ccccc1)NC(=O)c1cnccn1)B(O)O [Bort, bortezomib]
DXR-induced apoptosis in the mouse ovary / ovarian follicles ([1]; 0.143 mg/kg Bort 1 hr before 20 mg/kg DXR, 12 hrs): attenuates DXR-induced apoptosis; also recorded: prevented DXR-induced apoptosis
antral follicle apoptotic index [1, 16]: small decrease in the antral follicle apoptotic index; also recorded: did not prevent antral follicle apoptosis
primary follicle apoptosis (TUNEL) [1, 16]: decreased apoptosis in primary follicles; also recorded: appeared to decrease apoptosis in primary follicles
secondary follicle apoptosis (TUNEL) [1, 16]: levels not different from control; also recorded: significantly attenuated TUNEL signal in secondary follicles
DXR fluorescence (accumulation) in the ovary [2]: dropped DXR fluorescence to baseline levels; also recorded: lack of chemo accumulation; also recorded: prevented DXR accumulation
DXR-induced dsDNA breaks in KK-15 cells (comet moment) [3]: prevented DNA damage
DXR-induced dsDNA breaks in KK-15 cells (comet moment) ([3]; listed as Bortezomib): limited DXR-induced dsDNA breaks
pup weight, deviation from control ([4]; 0.143 mg/kg Bortezomib 1 hour before 10 mg/kg DXR): ≤ 6 % of control
litter size, mating round 1 ([4]; Bort-DXR treated mice, round 1): 8 pups
litter size, mating round 6 ([4]; Bort-DXR treated mice, round 6, end of the trial): 12 pups
DXR nuclear accumulation in L1210 cells [5]: prevent DXR nuclear accumulation
protection of the kidney from cisplatin toxicity [6]: shields the kidney from cisplatin toxicity
DXR-induced γH2A.X phosphorylation ([7]; 1 hr Bort pretreatment, 6 hrs post-DXR injection): attenuated DXR-induced γH2A.X phosphorylation; also recorded: attenuates γH2AX phosphorylation
DXR-induced PTEN protein reduction ([7]; Bort pretreatment, 6 hrs post-injection): PTEN protein reduction was eliminated
DXR-induced decrease of full-length Caspase 3 [7, 17]: prevented
DXR-induced loss of pAKT1 [7, 17]: similarly prevented; also recorded: restored AKT1 phosphorylation to control levels
comet moment, stromal cells, deviation from control ([8]; 0.143 mg/kg Bort i.p. 1 hr before 20 mg/kg DXR): ≤ 16 % of control
comet moment, granulosa cells, deviation from control ([8]; 0.143 mg/kg Bort i.p. 1 hr before 20 mg/kg DXR, 2-24 hrs): ≤ 10 % of control
DXR-induced DNA damage in stroma cells ([8]; Bort pretreatment, 4 hrs post-DXR): attenuates DXR-induced DNA damage
DXR-induced DNA damage in granulosa and stromal cells ([8]; Bort pretreatment, 12 hrs post-DXR): attenuates DXR-induced DNA damage
DXR-induced DNA damage in granulosa cells ([8]; Bort pretreatment, 24 hrs post-DXR): attenuates DXR-induced DNA damage
DXR-induced DNA damage in oocytes ([8]; Bort pretreatment, 24 hrs post-DXR injection): completely blocked DNA damage
DXR-induced dsDNA breaks in all ovarian cell types (granulosa, stromal cells, oocytes) ([8]; Bort pretreatment, entire 24 hour acute insult period): completely prevented DXR-induced DNA damage; also recorded: blocked DXR-induced dsDNA breaks; also recorded: prevents DXR-induced dsDNA breaks; also recorded: prevented DXR-induced double strand DNA breaks
comet moment in stromal cells at 2 hrs ([8]; Bort-DXR mice, 2 hrs, followed by a drop back to baseline): small rise in comet moment

COc1cccc2c1C(=O)c1c(O)c3c(c(O)c1C2=O)C[C@@](O)(C(=O)CO)C[C@@H]3O[C@H]1C[C@H](N)[C@H](O)[C@H](C)O1 [DXR, Doxorubicin]
apoptotic-positive secondary follicles ([1]; DXR alone, 12 hrs): doubling of apoptotic-positive secondary follicles
LD50 [9]: 50 nM
litter size relative to control ([4]; 10 mg/kg DXR): 50 % of control
decrease of pup birth weight compared to controls ([4]; 10 mg/kg DXR i.p. to 4 week old females): 17%
litter size ([4]; 10 mg/kg DXR, over mating rounds): 5-8 pups/litter
increase of DNA damage over control, granulosa cells ([10]; DXR): ~2 fold
maximal increase of DNA damage, stromal cells ([10]; DXR): 50%
time of first DNA damage, granulosa cells ([10]; post-injection): 4 h
time of first DNA damage, stromal/theca cells ([10]; post-injection): 2 h
time of first significant DNA damage over control, oocytes ([10]; post-injection): 10 to 12 h
apoptotic index, antral follicles ([11]; 8 hrs post-DXR): 100%
apoptotic index, primary follicles ([11]; 12 hours post-DXR): 12%
apoptotic index, secondary follicles (plateau) ([11]; 12 hours post-DXR): 40%
time of first apoptotic events in primordial follicles ([11]; post-DXR): 48 h
time to clearance from the blood stream [12]: 15 to 30 min
ovulation rate relative to pre-DXR [13]: 50%
PTEN protein expression ([7]; DXR alone, 6 hrs post-injection): appeared to decrease PTEN protein expression levels
phosphorylated AKT1 (pAKT1) levels ([7]; DXR alone, 24 hrs post-injection): appeared to decrease levels of phosphorylated AKT1
γH2A.X phosphorylation (17 kDa band) ([7]; DXR alone, ovarian lysates 6 hrs post-injection): increased γH2A.X phosphorylation
comet moment (dsDNA breaks), stromal cells ([8]; 20 mg/kg DXR i.p. alone): 150 % control values
comet moment (dsDNA breaks), granulosa cells ([8]; 20 mg/kg DXR i.p. alone, rise over 2-24 hrs post-injection): 250 % control values

CC(C)C[C@@H](C=O)NC(=O)[C@H](CC(C)C)NC(=O)[C@H](CC(C)C)NC(=O)OCc1ccccc1 [MG-132] (Cbz-Leu-Leu-Leu-aldehyde)
DXR-induced dsDNA breaks in KK-15 cells (comet moment) [3]: limited DXR-induced dsDNA breaks; also recorded: prevented DNA damage
DXR nuclear accumulation in L1210 cells [5]: prevent DXR nuclear accumulation
DXR-induced DNA damage in H9C2 cells [14]: prevents DXR-induced DNA damage

N.N.[Cl][Pt][Cl] [cisplatin]
circulating and follicular anti-mullerian hormone (AMH) levels [15]: decreases circulating and follicular levels of anti-mullerian hormone (AMH)
pregnancy rates and pups per litter [15]: decreases pregnancy rates and pups per litter
